# Laboratory results as given in patent publication US20080194406A1, “METHOD FOR TREATING AGRICULTURAL CROPS USING MATERIALS ASSOCIATED WITH TUBULAR CARRIERS” (NaturalNano, Inc., priority 2005, published 2008).
# Experiment: release profiles of drugs from halloysite tubule compositions, relative to total release amounts (FIGS. 4 and 5)
# Assay type: physicochemical
# Settings: release from mineral-derived tubule composition relative to total release amount; FIG. 4 (Tetracycline), FIG. 5 (Khellin)
# Excerpt: FIGS. 4 and 5, respectively illustrate, relative to total release amounts, the release profiles for two drugs (Tetracycline and Khellin), wherein prolonged application periods are desired.
smiles,measurement,value
COc1c2occc2c(OC)c2c(=O)cc(C)oc12 [Khellin],release profile extends for,several days
